According to ChEMBL document CHEMBL5154664, “Imidazolylacetophenone oxime-based multifunctional neuroprotective agents: Discovery and structure-activity relationships” (Eur J Med Chem, 2022):
Values after ≈ are worked out from the molar mass of the structure shown. Active and inactive are the calls of the source. The calls are words filed in the database; no cut-off is given here.

Assays:
[1] = Inhibition of LPS induced NO production in mouse BV-2 cells by Griess reagent based analysis; type: functional, cell-based
[2] = Cytotoxicity against LPS induced mouse BV-2 cells assessed as inhibition in cell viability at 20 uM measured by MTT assay; settings: BV-2 cells
[3] = target: Acetylcholinesterase (Electrophorus electricus) (UniProt O42275); assay: Inhibition of electric eel AChE at 20 uM using acetylthiocholine iodide as substrate preincubated with enzyme for 20 mins followed by substrate addition and measured after 45 mins by Ellman's method; settings: time 65.0 min
BV-2 [4] = assay: Antiinflammatory activity in mouse BV-2 cells assessed as […] LPS-induced TNFalpha production at 1 to 10 uM and measured after 24 hrs by ELISA; type: functional, cell-based; settings: dose 1-10 µM, DDE = dose-dependent effect
PC-12 [5] = assay: Anti-ferroptotic activity against RSL-3 induced ferroptosis in rat PC12 cells assessed as increase in cell viability at 10 uM measured after 24 hrs by MTT assay relative to control; type: functional
[6] = Permeability of compound by PAMPA-BBB assay; type: ADME; settings: read-out: permeability
BV-2 [7] = assay: Antiinflammatory activity in mouse BV-2 cells assessed as suppression of LPS-induced IL-1beta secretion at 10 uM and measured after 24 hrs by ELISA; type: functional, cell-based
PC-12 [8] = assay: Neuroprotective activity against H2O2-induced neuronal death in rat PC12 cells assessed as increase in cell viability at 10 uM measured after 24 hrs by MTT assay relative to control; type: functional
[9] = Cytotoxicity against rat PC12 cells assessed as cell viability at 1 to 10 uM measured after 24 hrs by MTT assay relative to control; type: toxicity, cell-based, PC-12; settings: dose 1-10 µM, read-out: Activity
[10] = Solubility of the compound by UV-spectrometry; type: physicochemical
[11] = Metal chelating activity assessed as compound Ca2+ complex formation by measuring maximum absorption wavelength shift at 25 uM incubated for 30 mins by UV-visible spectrophotometry
[12] = target: Prostaglandin G/H synthase 2 (Homo sapiens) (UniProt P35354); assay: Inhibition of human COX2 at 40 uM by microplate reader assay
BV-2 [13] = assay: Antiinflammatory activity in mouse BV-2 cells assessed as reduction in LPS-induced COX-2 expression at 0.5 uM by Western blot analysis relative to control; type: functional, cell-based
[14] = Metal chelating activity assessed as compound Mg2+ complex formation by measuring maximum absorption wavelength shift at 25 uM incubated for 30 mins by UV-visible spectrophotometry
[15] = Metal chelating activity assessed as compound Zn2+ complex formation by measuring maximum absorption wavelength shift at 25 uM incubated for 30 mins by UV-visible spectrophotometry
[16] = Metal chelating activity assessed as Cu2+-compound complex formation at compound:Cu2+ molar ratio of 1:1 to 1:4 at 25 uM incubated for 30 mins by UV-visible spectrophotometry
Acetylcholinesterase = Acetylcholinesterase (Electrophorus electricus, UniProt O42275); assay: Mixed type inhibition of electric eel AChE by reciprocal Lineweaver-Burk plot analysis
BV-2 [17] = assay: Antiinflammatory activity in mouse BV-2 cells assessed as reduction in LPS-induced iNOS expression at 0.5 uM by Western blot analysis relative to control; type: functional, cell-based
[18] = Metal chelating activity assessed as compound Fe2+ complex formation by measuring maximum absorption wavelength shift at 25 uM incubated for 30 mins by UV-visible spectrophotometry
BV-2 [19] = assay: Antiinflammatory activity in mouse BV-2 cells assessed as increase in LPS-induced Arg1 level at 10 uM by ELISA; type: functional, cell-based
[20] = Antioxidant activity assessed as DPPH radical scavenging activity at 20 uM incubated for 30 mins under dark condition by microplate reader based assay; type: functional
BV-2 [21] = assay: Antiinflammatory activity in mouse BV-2 cells assessed as reduction in LPS-induced COX-2 expression at 0.1 to 5 uM by Western blot analysis relative to control; type: functional, cell-based; settings: dose 0.1-5 µM, DDE = dose-dependent effect
BV-2 [22] = assay: Antiinflammatory activity in mouse BV-2 cells assessed as reduction in LPS-induced iNOS expression at 0.1 to 5 uM by Western blot analysis relative to control; type: functional, cell-based; settings: dose 0.1-5 µM, DDE = dose-dependent effect
[23] = Metal chelating activity assessed as Cu2+-compound complex formation by measuring maximum absorption wavelength shift at 25 uM incubated for 30 mins by UV-Visible spectrophotometry

Chain of Acetylcholinesterase (Electrophorus electricus) (O42275 24-633 limits assumed): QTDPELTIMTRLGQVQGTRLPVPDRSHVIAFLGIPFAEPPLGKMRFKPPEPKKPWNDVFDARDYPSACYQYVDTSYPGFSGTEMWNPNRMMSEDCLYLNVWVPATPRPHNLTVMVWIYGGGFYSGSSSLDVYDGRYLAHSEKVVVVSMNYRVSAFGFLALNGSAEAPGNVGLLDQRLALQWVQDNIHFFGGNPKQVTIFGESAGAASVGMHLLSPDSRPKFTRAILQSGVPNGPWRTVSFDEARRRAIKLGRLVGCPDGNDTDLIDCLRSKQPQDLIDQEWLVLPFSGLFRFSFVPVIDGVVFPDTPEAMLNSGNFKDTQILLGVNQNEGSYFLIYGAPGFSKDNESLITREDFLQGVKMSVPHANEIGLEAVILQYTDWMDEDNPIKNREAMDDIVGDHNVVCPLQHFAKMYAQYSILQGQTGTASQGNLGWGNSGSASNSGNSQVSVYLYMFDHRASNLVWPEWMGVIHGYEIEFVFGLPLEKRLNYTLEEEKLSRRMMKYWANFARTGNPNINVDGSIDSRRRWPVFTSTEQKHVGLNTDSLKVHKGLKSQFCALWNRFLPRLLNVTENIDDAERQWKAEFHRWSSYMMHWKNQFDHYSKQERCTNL
Chain of Acetylcholinesterase (O42275 whole entry): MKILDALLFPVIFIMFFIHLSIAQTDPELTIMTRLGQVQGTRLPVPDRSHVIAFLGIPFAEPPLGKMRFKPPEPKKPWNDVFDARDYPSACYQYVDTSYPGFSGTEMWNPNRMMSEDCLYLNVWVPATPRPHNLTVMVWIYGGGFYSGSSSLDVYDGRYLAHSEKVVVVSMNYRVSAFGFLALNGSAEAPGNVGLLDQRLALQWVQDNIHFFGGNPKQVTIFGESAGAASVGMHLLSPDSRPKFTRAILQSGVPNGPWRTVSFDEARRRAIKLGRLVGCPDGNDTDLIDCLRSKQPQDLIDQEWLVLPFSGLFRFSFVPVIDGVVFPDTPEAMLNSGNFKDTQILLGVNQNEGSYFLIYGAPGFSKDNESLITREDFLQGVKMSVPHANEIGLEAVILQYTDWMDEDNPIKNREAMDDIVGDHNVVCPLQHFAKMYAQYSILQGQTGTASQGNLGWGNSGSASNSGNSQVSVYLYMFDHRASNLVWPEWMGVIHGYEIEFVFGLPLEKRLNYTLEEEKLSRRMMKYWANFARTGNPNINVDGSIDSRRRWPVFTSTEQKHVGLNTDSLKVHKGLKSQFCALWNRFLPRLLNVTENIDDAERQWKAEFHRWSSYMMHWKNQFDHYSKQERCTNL
Chain of Prostaglandin G/H synthase 2 (Homo sapiens) (P35354 whole entry, looked up): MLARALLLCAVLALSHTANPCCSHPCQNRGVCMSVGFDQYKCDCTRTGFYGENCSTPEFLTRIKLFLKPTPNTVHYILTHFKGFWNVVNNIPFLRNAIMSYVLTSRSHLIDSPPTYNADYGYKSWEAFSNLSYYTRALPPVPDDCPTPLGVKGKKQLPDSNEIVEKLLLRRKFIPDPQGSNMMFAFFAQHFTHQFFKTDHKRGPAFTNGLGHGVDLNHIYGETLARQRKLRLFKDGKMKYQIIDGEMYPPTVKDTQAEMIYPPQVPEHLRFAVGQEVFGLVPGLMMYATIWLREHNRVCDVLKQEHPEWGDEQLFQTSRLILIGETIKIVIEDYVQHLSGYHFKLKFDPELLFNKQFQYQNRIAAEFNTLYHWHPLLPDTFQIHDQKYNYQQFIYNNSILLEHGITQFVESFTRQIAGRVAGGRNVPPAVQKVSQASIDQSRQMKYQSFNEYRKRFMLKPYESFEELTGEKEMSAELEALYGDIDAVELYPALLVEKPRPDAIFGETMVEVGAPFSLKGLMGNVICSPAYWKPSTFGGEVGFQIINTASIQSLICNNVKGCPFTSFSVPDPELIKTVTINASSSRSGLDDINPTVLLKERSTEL

C#CCO/N=C(\Cn1ccnc1)c1ccc(Br)cc1
EC50 [1]: 5.6 µM
CC50 [2]: > 20 µM

CC1(C)Oc2ccc(/C(Cn3ccnc3)=N/OC(=O)c3ccc(F)cc3)cc2O1
EC50 [1]: 6.32 µM
viability at 20 µM [2]: 99.7%

CC1(C)Oc2ccc(/C(Cn3ccnc3)=N/OC(=O)/C=C/c3ccc(Cl)cc3)cc2O1
inhibition [3]: 71%
EC50 [1]: 3.71 µM
viability at 20 µM [2]: 91%

CC1(C)Oc2ccc(/C(Cn3ccnc3)=N/OC(=O)Cc3cccc4ccccc34)cc2O1
Activity (BV-2 [4]): Dde
EC50 [1]: 1.02 µM
Activity (PC-12 [5]): 59%
Papp [6]: 9.2 ×10⁻⁶ cm/s
viability at 20 µM [2]: 94.8%
Activity (BV-2 [7]): Active
Activity (PC-12 [8]): 84%
viability at 24 h, up to 10 µM [9]: > 95%
solubility [10]: 509 µg/mL (≈ 1150 µM)

CC1(C)Oc2ccc(/C(Cn3ccnc3)=N/OC(=O)c3ccc4ccccc4c3Br)cc2O1
inhibition [3]: 72%
EC50 [1]: 6.5 µM
viability at 20 µM [2]: 90.8%

CC1(C)Oc2ccc(/C(Cn3ccnc3)=N/OC(=O)/C=C/c3ccccc3F)cc2O1
EC50 [1]: 3.19 µM
viability at 20 µM [2]: 90.8%

CC1(C)Oc2ccc(/C(Cn3ccnc3)=N/OC(=O)c3ccc4ccccc4c3)cc2O1
inhibition [3]: 67%
Activity [11]: Active
inhibition [12]: 92%
Activity (BV-2 [4]): Dde
EC50 [1]: 0.57 µM
Activity (BV-2 [13]): Active
Activity (PC-12 [5]): 58%
Papp [6]: 10.7 ×10⁻⁶ cm/s
Activity [14]: Active
viability at 20 µM [2]: 94.1%
Activity (BV-2 [7]): Active
Activity [15]: Active
Activity (PC-12 [8]): 83%
Activity [16]: Active
Ki (Acetylcholinesterase): 0.308 µM
Activity (BV-2 [17]): Active
viability at 24 h, up to 10 µM [9]: > 95%
Activity [18]: Active
Activity (BV-2 [19]): Active
Activity [20]: 25.5%
Activity (BV-2 [21]): Dde
Activity (BV-2 [22]): Dde
Activity [23]: Active
solubility [10]: 316 µg/mL (≈ 738 µM)

CC1(C)Oc2ccc(/C(Cn3ccnc3)=N/OC(=O)c3ccccc3Br)cc2O1
EC50 [1]: 3.89 µM
viability at 20 µM [2]: 95.4%

NC(=O)N1c2ccccc2C=Cc2ccccc21 [CARBAMAZEPINE]
Papp [6]: 10.2 ×10⁻⁶ cm/s

CC1(C)Oc2ccc(/C(Cn3ccnc3)=N/OC(=O)/C=C/c3ccccc3)cc2O1
EC50 [1]: 5.85 µM
viability at 20 µM [2]: 91.8%

Cc1ccc(C(=O)O/N=C(\Cn2ccnc2)c2ccc3c(c2)OC(C)(C)O3)cc1
EC50 [1]: 9.05 µM
viability at 20 µM [2]: 98.2%

CC1(C)Oc2ccc(/C(Cn3ccnc3)=N/OC(=O)/C=C/c3ccc(Br)cc3)cc2O1
EC50 [1]: 6.89 µM
viability at 20 µM [2]: 96.3%

O=c1c(O)c(-c2ccc(O)c(O)c2)oc2cc(O)cc(O)c12 [QUERCETIN]
EC50 [1]: 9.56 µM
viability at 20 µM [2]: 94.3%

FC(F)(F)c1ccccc1CO/N=C(\Cn1ccnc1)c1ccc2c(c1)OCO2
EC50 [1]: 1.53 µM
viability at 20 µM [2]: 95.4%
Activity [20]: 8.51%

N#Cc1ccc(CO/N=C(\Cn2ccnc2)c2ccc3c(c2)OCO3)cc1
EC50 [1]: 4.24 µM
viability at 20 µM [2]: 91.6%

c1ccc(CO/N=C(\Cn2ccnc2)c2ccc3c(c2)OCO3)cc1
EC50 [1]: 4.43 µM
viability at 20 µM [2]: 97.8%

CC(C)=CCO/N=C(\Cn1ccnc1)c1ccc2c(c1)OCO2
EC50 [1]: 1.76 µM
viability at 20 µM [2]: 93.3%
Activity [20]: 4.25%

C=CCO/N=C(\Cn1ccnc1)c1ccc2c(c1)OC(C)(C)O2
EC50 [1]: 2.22 µM
viability at 20 µM [2]: 96.4%

C(=C\c1ccccc1)/CO/N=C(\Cn1ccnc1)c1ccc2c(c1)OCO2
EC50 [1]: > 20 µM
viability at 20 µM [2]: 96.3%

FC(F)(F)c1ccc(CO/N=C(\Cn2ccnc2)c2ccc3c(c2)OCO3)cc1
EC50 [1]: 2.37 µM
viability at 20 µM [2]: 92.8%

C#CC(C)O/N=C(\Cn1ccnc1)c1ccc2c(c1)OCO2 (stereo unspecified)
EC50 [1]: 5.41 µM
viability at 20 µM [2]: 96.1%

CC1(C)Oc2ccc(/C(Cn3ccnc3)=N/OC(=O)/C=C/c3ccc(F)cc3)cc2O1
EC50 [1]: 5.96 µM
viability at 20 µM [2]: 95.7%
